Data on one molecule can be found in patent US7754751B2, “Preferential inhibition of release of pro-inflammatory cytokines” (Yung Shin Pharmaceutical Ind. Co., Ltd., priority 2004, dated 2010).

The structures appear in SMILES notation.

The test system of one test is NF-κB. Briefly: NF-κB DNA binding activity in tissue nuclear extracts of LPS-treated mice (EMSA, ELISA-based Trans-AM p65 kit). Type of test: in vivo. The following applies: ICR mice, LPS 60 mg/kg i.p., compound 10 mg/kg orally in 0.5% carboxymethyl cellulose; lung, spleen, kidney extracts. The procedure:
Mice (25-30 g, ICR strain) were injected intraperitoneally with LPS (60 mg/kg). Most of them were orally treated with Compound 1 (10 mg/kg) in 0.5% carboxymethyl cellulose, and the rest (control mice) were orally treated with vehicle. The control mice died within 27 h after the LPS administration. The mice were euthanatized with intraperitoneal administration of pentobarbital at various time intervals after the LPS administration. Nuclear extracts of lung, spleen, and kidney tissues were prepared by a standard method. NF-κB DNA binding activity was assessed by an electrophoretic mobility shift assay according to a procedure described in Pan et al., J Biomed Sci. 2002, 9: 622-630. […] The sample was then charged to native 5% polyacrylamide gels and analyzed by autoradiography. […] NF-κB DNA binding activity was also assessed with ELISA-based Trans-AM NF-κB p65 transcription factor assay kits (Active Motif Europe, […], Belgium) according to the manufacturer's instructions. […] Specificity of NF-κB activation was determined by competition experiments using NF-κB wild-type and mutant consensus oligonucleotides that were provided with the kit.

In a further test the test system is interleukin 8. Briefly: LPS-induced interleukin 8 release in human PBMC. In kind it is cell-based. The following applies: 10 μM compound with LPS 25 μg/ml, 24 h. On the procedure:
(§1) Approximately 450 ml of blood was obtained from healthy human volunteers and diluted with RPMI 1640 culture medium. A Ficoll gradient (MSL; Eurobio, les Ulis, France) was used to isolate human peripheral blood mononuclear leukocytes (PBMC). The volume ratio of blood, RPMI 1640 culture medium, and MSL was 2:4:1. PBMC were obtained by centrifuging the diluted blood at 500 g at 15° C. for 20 min and washed once with RPMI 1640. The cell pellets were resuspended at a final concentration of 6×10^6 cells/ml of the same medium supplemented with 5% heat-inactivated normal human serum (a pool of sera from healthy volunteers) and antibiotics (penicillin 100 UI/ml and streptomycin 100 μg/ml). Aliquots of 500 μl of the cell suspension were dispensed into each well of a 24-well plate and incubated at 37° C. in a 5% CO2-95% air incubator in a humidified atmosphere. To wells were added lipopolysaccharide (LPS, 25 μg/ml) from smooth E. Coli 0111:B4 alone or LPS and Compound 1 (10 μM) together. After 24 h, the supernatants were collected, centrifuged at 400 g for 10 min at 15° C. and stored at −20° C. Cytokines were assayed using commercial kits manufactured by R & D Systems (Abingdon, UK). The concentrations of the cytokines were determined using an internal standard according to the manufacturer's instructions.

The subject of a further test is TNF-α. Briefly: LPS-induced TNF-α release in human PBMC. Type of test: cell-based. Particulars: 10 μM compound with LPS 25 μg/ml, 24 h. The procedure: as §1
A further test relates to interleukin-4. Briefly: LPS-induced interleukin-4 release in human PBMC. Type of test: cell-based. Particulars: 10 μM compound with LPS 25 μg/ml, 24 h. The procedure:
as §1

For another test, the system named is interleukin 1β. Briefly: LPS-induced interleukin 1β release in human PBMC. Type of test: cell-based. Particulars: 10 μM compound with LPS 25 μg/ml, 24 h. On the procedure: as §1
The test system of another test is interferon-γ. Briefly: LPS-induced interferon-γ release in human PBMC. In kind it is cell-based. Particulars: 10 μM compound with LPS 25 μg/ml, 24 h. The procedure:
as §1

Another test relates to interleukin-10. Briefly: LPS-induced interleukin-10 release in human PBMC. In kind it is cell-based. The following applies: 10 μM compound with LPS 25 μg/ml, 24 h. On the procedure:
as §1

A further test relates to interleukin-2. Briefly: LPS-induced interleukin-2 release in human PBMC. In kind it is cell-based. Particulars: 10 μM compound with LPS 25 μg/ml, 24 h. On the procedure:
as §1

In general, inhibition refers to the percentage by which the read-out fell short of the control. High values mean strong suppression, low ones little suppression. As to `OCc1ccc(-c2nn(Cc3ccccc3)c3ccccc23)o1` [Compound 1, 3-(5′-hydroxymethyl-2′-furyl)-1-benzyl-indazol], the “NF-κB/DNA complex level induced by LPS” value with NF-κB is “inhibited the increase of the NF-κB/DNA complex level induced by LPS”. The inhibition at 10 µM in the test on interleukin 8 is greater than 80%; in the test with TNF-α it was greater than 80%; in the test on interleukin-4, less than 10%; with interleukin 1β it was greater than 80%; in the test with interferon-γ it was greater than 30%; in the test with interleukin-10, less than 10%. The inhibition at 10 µM in the test with interleukin-2 is greater than 30%.
